Data from patent US8137946B2, “Recombinant GRAS strains expressing thermophilic arabinose isomerase as an active form and method of preparing food grade tagatose by using the same” (CJ Cheiljedang Corporation, priority 2006, dated 2012).
Several values for one entry are separate records, joined by “and”; a condition that tells them apart may be missing. Identical values can stand only once.

T1: Geobacillus thermodenitrificans arabinose isomerase (mGTAI), recombinant, expressed in and purified from Corynebacterium glutamicum mGTAIC001 (Geobacillus thermodenitrificans, UniProt A4IPA1, C449S/N474K)
T1 sequence (A4IPA1 with tags, fused parts or gaps C449S/N474K): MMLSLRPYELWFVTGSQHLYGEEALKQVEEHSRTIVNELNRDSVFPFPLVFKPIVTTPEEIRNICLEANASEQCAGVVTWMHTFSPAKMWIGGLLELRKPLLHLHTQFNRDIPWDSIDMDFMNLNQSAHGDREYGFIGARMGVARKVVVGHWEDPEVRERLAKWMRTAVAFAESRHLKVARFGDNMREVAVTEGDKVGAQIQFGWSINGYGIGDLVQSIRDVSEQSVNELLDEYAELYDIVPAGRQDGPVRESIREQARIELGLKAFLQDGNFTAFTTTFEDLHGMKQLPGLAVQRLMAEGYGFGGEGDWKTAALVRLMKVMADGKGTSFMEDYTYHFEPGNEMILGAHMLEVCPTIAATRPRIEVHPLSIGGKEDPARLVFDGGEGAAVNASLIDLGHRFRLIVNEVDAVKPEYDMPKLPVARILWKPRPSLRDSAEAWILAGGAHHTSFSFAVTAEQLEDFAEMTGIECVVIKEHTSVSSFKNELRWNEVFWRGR

B1: Geobacillus thermodenitrificans arabinose isomerase (mGTAI), recombinant, expressed in and purified from Corynebacterium glutamicum mGTAIC001 (Geobacillus … (protein)
chain: MMLSLRPYELWFVTGSQHLYGEEALKQVEEHSRTIVNELNRDSVFPFPLVFKPIVTTPEEIRNICLEANASEQCAGVVTWMHTFSPAKMWIGGLLELRKPLLHLHTQFNRDIPWDSIDMDFMNLNQSAHGDREYGFIGARMGVARKVVVGHWEDPEVRERLAKWMRTAVAFAESRHLKVARFGDNMREVAVTEGDKVGAQIQFGWSINGYGIGDLVQSIRDVSEQSVNELLDEYAELYDIVPAGRQDGPVRESIREQARIELGLKAFLQDGNFTAFTTTFEDLHGMKQLPGLAVQRLMAEGYGFGGEGDWKTAALVRLMKVMADGKGTSFMEDYTYHFEPGNEMILGAHMLEVCPTIAATRPRIEVHPLSIGGKEDPARLVFDGGEGAAVNASLIDLGHRFRLIVNEVDAVKPEYDMPKLPVARILWKPRPSLRDSAEAWILAGGAHHTSFSFAVTAEQLEDFAEMTGIECVVIKEHTSVSSFKNELRWNEVFWRGR

How the values were obtained:
[1] = biological target: T1, Geobacillus thermodenitrificans arabinose isomerase (mGTAI), recombinant, expressed in and purified from Corynebacterium glutamicum mGTAIC001; assay: Enzyme kinetics of purified recombinant arabinose isomerase (isomerization of galactose into tagatose)
Description: The culture solution was centrifuged at 8000×g for 10 minutes and cells were recovered. The cells were resuspended in 50 mM Tris-HCl (pH 7.0) buffer, and used for the protein purification. The cell suspension progressed to cell lysis using a high pressure cell homogenizer T-series (4.0 kW; Constant systems, UK), followed by heat-treatment at […] for 20 minutes. Centrifugation was performed at 10,000×g for 10 minutes to separate the expressed recombinant thermophilic arabinose isomerase.
The separated recombinant enzyme solution was filtered by ultrafiltration (MW: 10,000; Sartorius, U.S.A.) and was purified by Q Sepharose Fast Flow (anion exchange column) (staring buffer: 20 mM Tris-HCl, pH 7.5, elution buffer: 20 mM Tris-HCl (pH 7.5)+500 mM NaCl). The protein was purified by FPLC system and it was analyzed by SDS-PAGE.
The activity of the enzyme was measured by the cystein-carbazol-sulfuric acid method (Dische, Z., and E. Borenfreund., A New Spectrophotometric Method for the Detection and Determination of Keto Sugars and Trioses, J. Biol. Chem., 192:583-587, 1951). The fraction contained in the enzyme solution was analysed by SDS-PAGE.
The activity of the enzyme was measured in the reaction buffer (50 mM Tris-HCl, pH 7.0, 1 mM MnCl2 was added) at 55° C. to 85° C. (at intervals of 5° C.). The activity of the enzyme was measured by the cystein-carbazol-sulfuric acid method (Dische, Z., and E. Borenfreund., A New Spectrophotometric Method for the Detection and Determination of Keto Sugars and Trioses, J. Biol. Chem., 192:583-587, 1951).
To measure the enzyme kinetics of purified arabinose isomerase of the present invention, kinetic parameters were determined at 60° C., 65° C. and 70° C. (table 5).

[2] = substrate: OC[C@H]1OC(O)[C@H](O)[C@@H](O)[C@H]1O; assay: purified protein, by the assay type

| Molecule | kcat/Km ([1]; 60° C.) | νmax ([1]; 60° C.) | kcat/Km ([1]; 65° C.) | νmax ([1]; 65° C.) | Km increase (times) relative to 60° C. ([1]; 65° C. and 70° C. vs 60° C.) | kcat/Km ([1]; 70° C.) | νmax ([1]; 70° C.) | Km ([2]; other: 60° C.) | kcat/Km ([2]; other: 65° C.) |
| --- | --- | --- | --- | --- | --- | --- | --- | --- | --- |
| OC[C@H]1OC(O)[C@H](O)[C@@H](O)[C@H]1O (stereo partly drawn) [galactose] | 35 M⁻¹ s⁻¹ and 35 ± 0.67 M⁻¹ s⁻¹ | 2.5 U/mg and 2.5 ± 0.07 U/mg | 38.3 ± 0.5 M⁻¹ s⁻¹ | 6.5 U/mg and 6.5 ± 0.57 U/mg | 2.4 times | 53.3 M⁻¹ s⁻¹ and 53.3 ± 0.67 M⁻¹ s⁻¹ | 9.1 U/mg and 9.1 ± 1.42 U/mg |  |  |
| B1 |  |  |  |  |  |  |  | 67.0 ± 2.98 mM | 38.3 M⁻¹ s⁻¹ |
